Measured values as given in the supplement of paper PMC12463676, “Small-molecule dissolution of stress granules by redox modulation benefits ALS models” (Nature Chemical Biology, 2025).

Assays:
lipoamide = compound: NC(=O)CCCCC1CCSS1 [lipoamide]; assay: thermal stability z-score vs DMSO; higher = more thermally stabilized by treatment; settings: HeLa, lipoamide concentration 100 µM
Protocol: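 Cellular thermal proteome profiling in HeLa cells. Cells were treated with 100 µM lipoamide for 1 h, with or without 1 mM arsenate for a further 1 h, then heated to ten temperatures (37-66.3 °C), and soluble protein was quantified by TMT mass spectrometry relative to 0.1% DMSO controls. The thermal stability score (sum of log2 fold changes minus the abundance score) was transformed to a z-score; mean of n = 3 experiments.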

potassium arsenate = compound: O=[As]([O-])(O)O.[K+] [potassium arsenate]; assay: as above; settings: HeLa; arsenate concentration 1 mM
Protocol: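 Cellular thermal proteome profiling in HeLa cells treated with 1 mM arsenate for 1 h (DMSO pretreatment), heated to ten temperatures (37-66.3 °C). Soluble protein was quantified by TMT mass spectrometry relative to DMSO controls; the thermal stability score was transformed to a z-score; mean of n = 3 experiments.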

[1] = arsenate co-treatment: 1 mM arsenate 1 h
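Also: each temperature applied for 3 min, abundance score taken as mean log2 fold change at the two lowest temperatures, z-score obtained by mean subtraction and division by SD.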

UniProt Q9GZR7, sequence (Q9GZR7 whole entry): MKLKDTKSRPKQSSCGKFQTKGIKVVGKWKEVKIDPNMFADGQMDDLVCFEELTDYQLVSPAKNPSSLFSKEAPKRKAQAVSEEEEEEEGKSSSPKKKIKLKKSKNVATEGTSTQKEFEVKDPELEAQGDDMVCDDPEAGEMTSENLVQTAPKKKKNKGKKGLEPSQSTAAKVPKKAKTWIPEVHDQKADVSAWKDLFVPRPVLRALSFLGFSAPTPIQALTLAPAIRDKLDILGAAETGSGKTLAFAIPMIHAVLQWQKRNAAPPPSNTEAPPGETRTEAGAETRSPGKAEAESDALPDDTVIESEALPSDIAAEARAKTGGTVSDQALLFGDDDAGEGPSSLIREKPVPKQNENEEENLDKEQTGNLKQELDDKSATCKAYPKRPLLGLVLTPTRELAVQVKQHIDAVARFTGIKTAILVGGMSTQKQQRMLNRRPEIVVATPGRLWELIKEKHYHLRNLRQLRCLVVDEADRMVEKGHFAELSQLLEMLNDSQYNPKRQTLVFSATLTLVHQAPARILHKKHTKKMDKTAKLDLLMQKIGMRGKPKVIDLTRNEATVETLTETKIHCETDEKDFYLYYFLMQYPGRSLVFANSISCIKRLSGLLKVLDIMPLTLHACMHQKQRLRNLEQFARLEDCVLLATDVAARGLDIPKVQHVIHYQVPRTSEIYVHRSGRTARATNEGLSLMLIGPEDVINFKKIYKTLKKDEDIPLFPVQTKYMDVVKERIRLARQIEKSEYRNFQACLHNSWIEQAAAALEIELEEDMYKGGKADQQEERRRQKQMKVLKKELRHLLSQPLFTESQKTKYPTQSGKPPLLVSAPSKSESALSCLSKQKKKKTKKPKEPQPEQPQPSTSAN
UniProt O00148, sequence (O00148 whole entry): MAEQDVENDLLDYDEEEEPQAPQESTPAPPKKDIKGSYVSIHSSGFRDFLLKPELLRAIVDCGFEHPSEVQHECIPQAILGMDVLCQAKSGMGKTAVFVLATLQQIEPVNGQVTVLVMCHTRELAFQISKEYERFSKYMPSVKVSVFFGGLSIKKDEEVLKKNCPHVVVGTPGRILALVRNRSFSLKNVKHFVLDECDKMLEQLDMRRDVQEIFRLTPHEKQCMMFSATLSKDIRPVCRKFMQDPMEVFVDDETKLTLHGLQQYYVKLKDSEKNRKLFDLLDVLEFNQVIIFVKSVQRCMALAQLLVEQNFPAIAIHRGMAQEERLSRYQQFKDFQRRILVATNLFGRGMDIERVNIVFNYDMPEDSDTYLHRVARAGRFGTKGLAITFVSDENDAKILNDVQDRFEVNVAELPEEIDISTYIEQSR
UniProt Q9BUN8, sequence (Q9BUN8 whole entry): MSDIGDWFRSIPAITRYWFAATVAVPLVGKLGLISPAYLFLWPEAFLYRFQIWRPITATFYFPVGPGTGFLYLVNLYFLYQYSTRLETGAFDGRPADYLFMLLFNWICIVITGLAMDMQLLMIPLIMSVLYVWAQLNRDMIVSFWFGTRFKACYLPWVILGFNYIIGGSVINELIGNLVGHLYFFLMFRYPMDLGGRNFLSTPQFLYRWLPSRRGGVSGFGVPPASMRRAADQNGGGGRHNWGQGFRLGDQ
UniProt Q9NUU7, sequence (Q9NUU7 whole entry): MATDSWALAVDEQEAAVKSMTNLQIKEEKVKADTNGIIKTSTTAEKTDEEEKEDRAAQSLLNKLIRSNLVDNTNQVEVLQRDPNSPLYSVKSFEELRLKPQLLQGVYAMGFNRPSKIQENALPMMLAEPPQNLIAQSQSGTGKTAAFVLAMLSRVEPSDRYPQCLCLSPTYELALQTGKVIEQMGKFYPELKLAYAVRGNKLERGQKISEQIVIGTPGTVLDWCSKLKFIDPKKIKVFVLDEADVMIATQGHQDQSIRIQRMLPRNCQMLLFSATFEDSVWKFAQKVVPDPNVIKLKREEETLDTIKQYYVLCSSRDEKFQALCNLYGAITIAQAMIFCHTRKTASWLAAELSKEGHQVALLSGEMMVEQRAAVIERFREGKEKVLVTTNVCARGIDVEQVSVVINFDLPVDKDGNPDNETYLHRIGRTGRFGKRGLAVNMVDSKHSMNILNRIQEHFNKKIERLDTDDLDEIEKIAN
UniProt O60443, sequence (O60443 whole entry): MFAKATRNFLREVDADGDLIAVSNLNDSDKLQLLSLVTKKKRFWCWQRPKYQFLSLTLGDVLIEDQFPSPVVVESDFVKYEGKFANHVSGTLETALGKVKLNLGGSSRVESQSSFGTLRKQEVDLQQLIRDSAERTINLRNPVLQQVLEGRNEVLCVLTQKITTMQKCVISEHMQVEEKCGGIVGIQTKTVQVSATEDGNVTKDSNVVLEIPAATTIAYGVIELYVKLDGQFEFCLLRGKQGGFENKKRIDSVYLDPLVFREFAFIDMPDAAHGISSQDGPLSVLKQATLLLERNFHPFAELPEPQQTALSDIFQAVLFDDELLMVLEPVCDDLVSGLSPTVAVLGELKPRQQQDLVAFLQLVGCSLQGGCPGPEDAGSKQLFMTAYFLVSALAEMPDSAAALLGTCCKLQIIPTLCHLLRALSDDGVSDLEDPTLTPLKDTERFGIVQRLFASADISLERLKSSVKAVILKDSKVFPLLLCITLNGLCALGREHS
UniProt Q96FC9, sequence (Q96FC9 whole entry): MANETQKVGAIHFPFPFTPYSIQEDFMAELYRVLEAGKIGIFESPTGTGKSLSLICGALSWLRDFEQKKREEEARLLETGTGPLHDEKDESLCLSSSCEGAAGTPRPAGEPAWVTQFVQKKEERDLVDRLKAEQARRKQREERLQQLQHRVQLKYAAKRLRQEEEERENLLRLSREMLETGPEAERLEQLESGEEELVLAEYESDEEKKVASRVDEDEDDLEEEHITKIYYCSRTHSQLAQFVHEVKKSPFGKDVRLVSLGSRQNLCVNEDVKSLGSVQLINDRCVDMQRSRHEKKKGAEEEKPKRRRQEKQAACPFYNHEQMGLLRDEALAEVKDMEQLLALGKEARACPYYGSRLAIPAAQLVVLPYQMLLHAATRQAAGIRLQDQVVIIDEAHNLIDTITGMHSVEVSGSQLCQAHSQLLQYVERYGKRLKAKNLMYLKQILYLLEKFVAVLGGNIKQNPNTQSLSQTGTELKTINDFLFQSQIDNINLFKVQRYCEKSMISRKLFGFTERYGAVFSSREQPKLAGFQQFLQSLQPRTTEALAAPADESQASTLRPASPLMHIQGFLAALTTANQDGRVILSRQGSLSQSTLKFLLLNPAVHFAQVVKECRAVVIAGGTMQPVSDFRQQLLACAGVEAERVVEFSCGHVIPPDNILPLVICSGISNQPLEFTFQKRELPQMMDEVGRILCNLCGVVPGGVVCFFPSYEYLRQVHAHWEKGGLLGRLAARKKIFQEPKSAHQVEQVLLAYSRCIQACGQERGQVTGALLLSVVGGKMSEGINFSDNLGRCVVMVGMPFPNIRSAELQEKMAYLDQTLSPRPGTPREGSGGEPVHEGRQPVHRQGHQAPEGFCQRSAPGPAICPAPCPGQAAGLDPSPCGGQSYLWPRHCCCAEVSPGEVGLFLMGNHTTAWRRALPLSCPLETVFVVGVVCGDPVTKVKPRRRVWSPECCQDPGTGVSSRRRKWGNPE
UniProt Q9Y394, sequence (Q9Y394 whole entry): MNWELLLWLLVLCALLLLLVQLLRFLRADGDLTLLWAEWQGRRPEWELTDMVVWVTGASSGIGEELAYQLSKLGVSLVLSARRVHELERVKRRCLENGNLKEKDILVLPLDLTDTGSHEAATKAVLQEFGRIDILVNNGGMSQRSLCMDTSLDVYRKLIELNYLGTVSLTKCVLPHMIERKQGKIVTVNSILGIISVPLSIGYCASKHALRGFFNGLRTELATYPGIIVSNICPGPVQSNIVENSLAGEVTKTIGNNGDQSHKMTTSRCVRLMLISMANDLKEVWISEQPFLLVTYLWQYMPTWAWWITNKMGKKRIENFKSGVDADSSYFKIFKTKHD
UniProt Q15392, sequence (Q15392 whole entry): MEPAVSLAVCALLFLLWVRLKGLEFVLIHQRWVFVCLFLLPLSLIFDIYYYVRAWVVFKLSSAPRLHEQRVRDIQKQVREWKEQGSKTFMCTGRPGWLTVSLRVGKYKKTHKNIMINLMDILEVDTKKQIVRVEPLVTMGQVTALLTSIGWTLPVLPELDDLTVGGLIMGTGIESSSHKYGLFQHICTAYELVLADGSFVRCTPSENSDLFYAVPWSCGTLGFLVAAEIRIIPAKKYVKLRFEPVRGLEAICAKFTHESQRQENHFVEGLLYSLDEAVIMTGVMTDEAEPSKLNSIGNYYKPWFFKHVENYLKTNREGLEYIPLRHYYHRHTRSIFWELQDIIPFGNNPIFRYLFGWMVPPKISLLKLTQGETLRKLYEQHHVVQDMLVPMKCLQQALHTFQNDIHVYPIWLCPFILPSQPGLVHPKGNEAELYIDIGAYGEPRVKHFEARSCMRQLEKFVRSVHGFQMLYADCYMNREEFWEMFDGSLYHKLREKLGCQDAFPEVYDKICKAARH
UniProt Q86SQ9, sequence (Q86SQ9 whole entry): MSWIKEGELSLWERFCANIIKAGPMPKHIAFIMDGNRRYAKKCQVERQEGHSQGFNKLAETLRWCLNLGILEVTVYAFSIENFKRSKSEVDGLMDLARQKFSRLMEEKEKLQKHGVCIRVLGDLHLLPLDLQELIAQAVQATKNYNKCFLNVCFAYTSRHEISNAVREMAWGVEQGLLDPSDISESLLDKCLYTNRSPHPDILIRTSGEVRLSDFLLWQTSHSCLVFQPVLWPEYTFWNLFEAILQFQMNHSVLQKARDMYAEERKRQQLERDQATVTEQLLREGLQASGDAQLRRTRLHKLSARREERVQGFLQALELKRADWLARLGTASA
UniProt O75911, sequence (O75911 whole entry): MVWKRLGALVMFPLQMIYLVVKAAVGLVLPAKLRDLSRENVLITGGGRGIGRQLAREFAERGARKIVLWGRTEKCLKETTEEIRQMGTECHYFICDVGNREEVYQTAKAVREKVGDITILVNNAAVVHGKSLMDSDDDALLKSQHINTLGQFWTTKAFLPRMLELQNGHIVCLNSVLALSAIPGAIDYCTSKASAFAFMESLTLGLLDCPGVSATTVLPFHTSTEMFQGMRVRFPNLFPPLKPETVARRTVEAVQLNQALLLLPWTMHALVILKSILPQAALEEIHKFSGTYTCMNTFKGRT

Target | thermal stability z-score (lipoamide; [1]) | thermal stability z-score (lipoamide; arsenate co-treatment: none) | thermal stability z-score (potassium arsenate)
DDR2 (UniProt Q16832) | -0.251 | -0.189 | -0.163
DDRGK1 (UniProt Q96HY6) | -1.17 | -0.728 | 0.397
DDT (UniProt P30046) | -0.198 | 0.134 | 0.0872
DDX1 (UniProt Q92499) | 0.085 | 0.274 | -0.304
DDX3X (UniProt O00571) | -0.829 | -0.504 | -2.07
DDX5 (UniProt P17844) | 0.954 | 1.43 | -1.9
DDX6 (UniProt P26196) | 0.414 | 0.53 | 1.01
DDX11 (UniProt Q96FC9) | -0.753 | -0.517 | 1.07
DDX17 (UniProt Q92841) | 0.121 | 0.424 | -0.776
DDX18 (UniProt Q9NVP1) | 0.301 | 0.0191 | -1.26
DDX19A (UniProt Q9NUU7) | 0.865 | 1.2 | 0.954
DDX20 (UniProt Q9UHI6) | -0.457 | -0.527 | -0.763
DDX21 (UniProt Q9NR30) | 0.693 | 0.249 | -1.35
DDX23 (UniProt Q9BUQ8) | 0.326 | 0.137 | -0.836
DDX24 (UniProt Q9GZR7) | 1.1 | 0.327 | -0.522
DDX27 (UniProt Q96GQ7) | 0.47 | 0.52 | -0.231
DDX28 (UniProt Q9NUL7) | -0.0583 | 0.0995 | 0.0334
DDX31 (UniProt Q9H8H2) | 0.19 | 0.0101 | -0.348
DDX39A (UniProt O00148) | -0.214 | 0.12 | 0.441
DDX39B (UniProt Q13838) | 0.451 | 0.103 | 0.941
DDX41 (UniProt Q9UJV9) | -0.196 | -0.0709 | -0.204
DDX42 (UniProt Q86XP3) | 0.815 | 0.837 | 0.47
DDX46 (UniProt Q7L014) | 0.411 | 0.501 | -1.2
DDX47 (UniProt Q9H0S4) | 1.72 | 0.253 | 0.634

Target | thermal stability z-score (lipoamide; [1]) | thermal stability z-score (lipoamide; arsenate co-treatment: none) | thermal stability z-score (potassium arsenate)
DDX49 (UniProt Q9Y6V7) | -0.368 | -0.359 | -0.153
DDX50 (UniProt Q9BQ39) | 0.262 | 0.192 | -0.49
DDX54 (UniProt Q8TDD1) | -0.154 | -0.015 | -0.136
DDX55 (UniProt Q8NHQ9) | 0.693 | 0.58 | 0.0246
DDX56 (UniProt Q9NY93) | -0.847 | -0.217 | 0.917
DDX59 (UniProt Q5T1V6) | -0.512 | -0.363 | -1.01
DECR1 (UniProt Q16698) | -0.133 | 0.18 | -0.0171
DECR2 (UniProt Q9NUI1) | 1.26 | 1.15 | 1.27
DEGS1 (UniProt O15121) | -0.756 | -1.25 | 0.212
DEK (UniProt P35659) | 0.116 | 0.695 | -0.316
DENND1A (UniProt Q8TEH3) | -0.118 | -0.0262 | -0.185
DENND4B (UniProt O75064) | 0.182 | -0.0196 | 0.288
DENND4C (UniProt Q5VZ89) | 0.201 | 0.677 | 0.337
DENND5B (UniProt Q6ZUT9) | 0.0786 | 0.0385 | 0.148
DENND6A (UniProt Q8IWF6) | -0.149 | -0.836 | -0.387
DENR (UniProt O43583) | 0.109 | -0.188 | -0.702
DEPDC7 (UniProt Q96QD5) | -0.328 | -0.237 | -0.221
DERA (UniProt Q9Y315) | 0.0875 | -0.0376 | -0.0631
DERL1 (UniProt Q9BUN8) | -0.177 | -0.185 | -0.00515
DERL2 (UniProt Q9GZP9) | -0.00701 | -0.0318 | 0.0606
DFFA (UniProt O00273) | 0.376 | 0.555 | 0.443
DFNA5 (UniProt O60443) | 0.218 | 0.152 | 0.523
DGAT1 (UniProt O75907) | -0.44 | -0.27 | -0.264
DGCR14 (UniProt Q96DF8) | -0.552 | 0.06 | 0.724

Target | thermal stability z-score (lipoamide; [1]) | thermal stability z-score (lipoamide; arsenate co-treatment: none) | thermal stability z-score (potassium arsenate)
DHCR7 (UniProt Q9UBM7) | -0.283 | -0.384 | 0.411
DHCR24 (UniProt Q15392) | 0.408 | 0.354 | 0.726
DHDDS (UniProt Q86SQ9) | 1.01 | 0.391 | 0.205
DHFR (UniProt P00374) | -0.995 | -0.563 | 0.324
DHODH (UniProt Q02127) | 0.213 | 0.162 | -0.752
DHPS (UniProt P49366) | 0.538 | 0.536 | 0.603
DHRS1 (UniProt Q96LJ7) | -0.121 | 0.743 | 0.812
DHRS3 (UniProt O75911) | -0.614 | -0.616 | -0.762
DHRS4 (UniProt Q9BTZ2) | -0.194 | -0.173 | 0.0753
DHRS7 (UniProt Q9Y394) | -0.365 | -0.498 | 0.437
DHRS7B (UniProt Q6IAN0) | 0.315 | -0.159 | 0.0755
DHRS11 (UniProt Q6UWP2) | 0.484 | 0.188 | 0.252
DHRS13 (UniProt Q6UX07) | 0.049 | 0.274 | 0.0183
DHRSX (UniProt Q8N5I4) | 0.396 | 0.418 | -0.643
DHTKD1 (UniProt Q96HY7) | -0.237 | 0.0606 | -0.558
DHX8 (UniProt Q14562) | 0.819 | 0.167 | 0.449
DHX9 (UniProt Q08211) | 0.398 | 1.65 | -1.4
DHX15 (UniProt O43143) | -0.319 | -0.389 | 0.00808
DHX16 (UniProt O60231) | -0.223 | 0.345 | -1.81
DHX29 (UniProt Q7Z478) | 0.104 | 0.27 | 0.267
DHX30 (UniProt Q7L2E3) | -0.306 | 0.192 | -0.391
DHX32 (UniProt Q7L7V1) | -1.73 | -1.67 | 0.629
DHX34 (UniProt Q14147) | 0.0163 | -0.0341 | -0.164
